The values below come from US11447511B2, “Dioxolane analogues of uridine for the treatment of cancer” (MEDIVIR AB, priority 2014, dated 2022).

Series [1] can be described thus: Cell cytotoxicity assay, HUH7. The class given is cell-based. To be noted: human; Huh7 cells, 5 days at 37° C., XTT dye. On the procedure: (§1) Cells were seeded 24 hours prior to compound addition. Each test compound (serially diluted from 100 μM) was added to Huh7 (1.5×10^4 cells/well) or HepG2 (1.5×10^4 cells/well), and allowed to incubate for 5 days at 37° C. A medium only control was used to determine the minimum absorbance value and an untreated cell value. At the end of the growth period, XTT dye from Polysciences Europe GmbH was added to each well. The absorbance at 450 nm with a reference wavelength of 600 nm was read with a Sunrise (Tecan) using the medium only control wells as blanks. The 50% inhibition value (CC50) was determined by comparing the degree of inhibition (compared to cell control) plotted against compound concentration. Results from the dilution series were fitted to a sigmoidal dose-response curve.
(§2) Compounds of the invention were evaluated in these assays to assess the stability in human intestinal S9 fraction (HIS9) and human liver S9 fraction (HLS9), and for Cell Cytotoxicity in HUH7, HEP3B and HEPG2 cells.

The nature of series [2]: Cell cytotoxicity assay, HEPG2. The series is classed as cell-based. To be noted: human; HepG2 cells, 5 days at 37° C., XTT dye. On the procedure:
as §1, §2

Series [3] can be described thus: Stability in human liver S9 fraction (HLS9). The series is classed as in vitro ADME. To be noted: human liver S9 0.4 mg protein/mL, 5 μM test compound, 37° C.; for microsomal CLint at 5 μM: liver S9 fraction, pH 7.4. On the procedure: (§3) Stability in Human Intestinal S9 Fraction (HIS9) and in Human Liver S9 Fraction (HLS9),
(§4) Stock solutions of each test compound (10 mM) were prepared in DMSO and stored at −20° C. Prior to the start of the experiment, the test compounds were diluted to 500 μM in 50% acetonitrile in water. The reaction mixture was prepared in a total volume of 250 μL containing 5 mM MgC2, 1 mM NADPH and 5 μM test compound in 50 mM potassium phosphate buffer (pH 7.4). The reaction was initiated by addition of human liver or intestinal S9 fraction with a final concentration of 0.4 mg protein/mL (Xeno Tech). The reaction mixture was incubated on an orbital shaker at 37° C. At the desired time points (0, 10, 30 and 60 minutes) aliquots of 50 μL were taken and the reaction was stopped by mixing with 150 μL acetonitrile containing internal standard. Standard solutions of each test compound were prepared from the 500 μM solution by diluting the solution to a final concentration of 5 μM in boiled human S9 (0.4 mg protein/mL), 5 mM MgCl2 and 50 mM potassium phosphate buffer (pH 7.4). The standards and samples were kept on ice for 30 min then centrifuged at 3 000 g for 20 minutes at 10° C., there after 10 μL of supernatant was mixed with 200 μL 50% acetonitrile in water. 0.5 μM of each test compound in 50% acetonitrile in water was injected into the LC/MS-MS to determine the daughter ion, declustring potential (DP), collision energy (CE) and collision cell exit potential (CXP) in order to develop a LC/MS-MS method. The compounds were separated using a C18 column with a QTRAP5500 system. The mobile phase consisted of solvent A (98% water, 2% acetonitrile, 0.1% acetic acid or 10 mM ammonium acetate) and solvent B (80% acetonitrile, 20% water, 0.1% acetic acid or 10 mM ammonium acetate). Elution of the compounds was performed by using a gradient of solvent B from 0% to 100%. 5 μL of standard points and samples were injected for analysis with QTRAP5500.
(§5) The amount of parent compound was determined on the basis of the peak area for each time point compared to standard which was set to 5 μM. Intrinsic clearance (CLint) and half-life (t1/2) were determined from the disappearance curves of the test compound using Excel software.

Series [4] is described as follows: Stability in human intestinal S9 fraction (HIS9). To be noted: human intestinal S9 0.4 mg protein/mL, 5 μM test compound, 37° C.; for microsomal CLint at 5 μM: intestinal S9 fraction, pH 7.4. The class given is in vitro ADME. On the procedure:
as §3, §4, §5

A short description of series [5]: Cell cytotoxicity assay, HEP3B. To be noted: human, HEP3B cells. The series is classed as cell-based. On the procedure: as §1, §2
Another series relates to HIV. The note with it: relative to 3TC; cited from earlier work.
The next series concerns HBV in Hep G2.2.15 cells. To be noted: cited from earlier work.
In a further series the test system is Huh7. In words: Cell cytotoxicity assay, HUH7. The series is classed as cell-based. To be noted: Huh7 cells, 5 days at 37° C., XTT dye. On the procedure:
as §1, §2

The test system of another series is HEP3B. In words: Cell cytotoxicity assay, HEP3B. The series is classed as cell-based. To be noted: HEP3B cells. On the procedure: as §1, §2
For another series, the system named is HepG2. The series is described as follows: Cell cytotoxicity assay, HEPG2. The note with it: HepG2 cells, 5 days at 37° C., XTT dye. The class given is cell-based. On the procedure: as §1, §2

`CC(C)OC(=O)[C@H](C)NP(=O)(OC[C@H]1OC[C@@H](n2ccc(N)nc2=O)O1)Oc1ccccc1` (single isomer, unassigned) [Example 3]: the values for the 50% cytotoxic concentration (CC50) at 5 days in series [1] and in series [2] were 3280 nM and 371 nM, respectively. In addition, the microsomal CLint at 5 μM in series [3] amounted to 8 µL/min/mg. In addition, the “CLint Intestinal S9” value in series [4] amounted to 6 µL/min/mg.
As to `Nc1ccn([C@@H]2CO[C@H](CO)O2)c(=O)n1` [Troxacitabine, 4-amino-1-((2S,4S)-2-(hydroxymethyl)-1,3-dioxolan-4-yl)pyrimidin-2(1H)-one, reference compound], the figures for the CC50 at 5 days in series [1], in series [5] and in series [2] were 646 nM, 279 nM and 218 nM, respectively.
As to `COC(=O)C(C)NP(=O)(OC[C@@H]1O[C@H](n2ccc(N)nc2=O)CS1)Oc1ccccc1` (stereo partly drawn) [CF 1109], the “fold less active against HIV than parent nucleoside 3TC” value in the series on HIV is reported as ~250 fold. Further, the “effectiveness against HBV compared with parent nucleoside 3TC” value in the series on HBV in Hep G2.2.15 cells is “virtually equally effective”.
Consider `COC(=O)[C@H](C)NP(=O)(OC[C@H]1OC[C@@H](n2ccc(N)nc2=O)O1)Oc1ccc(C2CC2)cc1` (single isomer, unassigned) [34 dia-2], for which the cytotoxic concentration (CC50) at 5 days in [1] is 524 nM; in series [5], 210 nM; in [2], 236 nM. In [3], the microsomal CLint at 5 μM was 64 µL/min/mg. The “CLint Intestinal S9” value in series [4] was 6 µL/min/mg.
As for `COC(=O)[C@H](C)NP(=O)(OC[C@H]1OC[C@@H](n2ccc(N)nc2=O)O1)Oc1ccc(Br)cc1` (single isomer, unassigned) [27 dia-2], the CC50 at 5 days in series [1] came out at 1020 nM; in [5], 348 nM; in [2] it was 223 nM. In addition, the microsomal CLint at 5 μM in [3] was 57 µL/min/mg. For the same compound, in series [4], the “CLint Intestinal S9” value was 6 µL/min/mg.
On to `COC(=O)[C@H](Cc1ccccc1)NP(=O)(OC[C@H]1OC[C@@H](n2ccc(N)nc2=O)O1)Oc1ccccc1` (single isomer, unassigned) [28 dia-2], for which the CC50 at 5 days stood at 15600 nM in series [1] and 2720 nM in series [2]. The microsomal CLint at 5 μM in series [3] turned out to be 20 µL/min/mg; in series [4] it was 40 µL/min/mg.
On to `C[C@H](NP(=O)(OC[C@H]1OC[C@@H](n2ccc(N)nc2=O)O1)Oc1ccccc1)C(=O)OCc1ccccc1` (single isomer, unassigned; dia-2) [19 dia-2], for which the CC50 stood at 71 nM in the series with Huh7, 58 nM in the series on HEP3B and 14 nM in the series with HepG2. In addition, the “CLint Liver S9” value in series [3] is 24 µL/min/mg. The “CLint Intestinal S9” value in [4] stood at 17 µL/min/mg.
Turning to `CCC[C@H](C)OC(=O)[C@H](C)NP(=O)(OC[C@H]1OC[C@@H](n2ccc(N)nc2=O)O1)Oc1ccc(C2CC2)cc1` (single isomer, unassigned; dia-2) [16 dia-2], the CC50 worked out at 152 nM in the series on Huh7, 53 nM in the series with HEP3B and 130 nM with HepG2. Also, the “CLint Liver S9” value in [3] was found to be 59 µL/min/mg. The “CLint Intestinal S9” value in [4] was 8 µL/min/mg.
On to `CCC[C@H](C)OC(=O)[C@H](C)NP(=O)(OC[C@H]1OC[C@@H](n2cc(F)c(N)nc2=O)O1)Oc1cccc(C2CC2)c1` (single isomer, unassigned) [29 dia-2], for which the CC50 at 5 days in series [1] was 495 nM; in [5], 75 nM. Besides, the intrinsic metabolic clearance (microsomal CLint) at 5 μM in series [3] was 36 µL/min/mg; in [4], 18 µL/min/mg.
Consider `CC(C)OC(=O)[C@H](C)NP(=O)(OC[C@H]1OC[C@@H](n2ccc(=O)[nH]c2=O)O1)Oc1ccccc1` (stereo partly drawn) [Example 1, (2S)-isopropyl 2-(((((2S,4S)-4-(2,4-dioxo-3,4-dihydropyrimidin-1(2H)-yl)-1,3-dioxolan-2-yl)methoxy)(phenoxy)phosphoryl)amino)propanoate], for which the 50% cytotoxic concentration (CC50) at 5 days in series [1] and in series [2] was > 100000 nM in each case. The microsomal CLint at 5 μM in [3] came out at 12 µL/min/mg. Moreover, in series [4], the “CLint Intestinal S9” value was 6 µL/min/mg.
Regarding `CC(C)OC(=O)[C@H](C)NP(=O)(OC[C@H]1OC[C@@H](n2ccc(N)nc2=O)O1)Oc1ccccc1` (single isomer, unassigned) [Example 2], the cytotoxic concentration (CC50) at 5 days in series [1] came out at 1750 nM; in series [2], 248 nM. Also, the microsomal CLint at 5 μM in series [3] was found to be 13 µL/min/mg. Besides, the “CLint Intestinal S9” value in [4] stood at 6 µL/min/mg.
